A short description of assay [1]: inhibitors of SNCA 5'UTR-driven reporter translation, confirmation, H4 neuroglioma cells, luminescence (AID 1988). It is filed as functional, cell-based.
Assay [2] is described as follows: Luminescence Cell-Based Dose Response HTS to Identify Inhibitors of 5'UTR Stem-Loop Driven Prion Protein mRNA Translation in H4 Neuroglioblastoma Cells. [Related pubchem assays: 1827 (Project Summary), 1813 (Primary HTS)]. It is filed as functional.
Assay [3] is described as follows: inhibitors of firefly luciferase expression or activity, dose response, H4 neuroglioma cells, luminescence (AID 1990). Format: functional, cell-based.
The target in assay [4] is Type-1 angiotensin II receptor (Homo sapiens, UniProt P30556). In words: AT1 receptor agonists, dose response, selectivity assay for APJ receptor agonist project, cell-based, uHTS hits (AID 488865).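 Also: beta-arrestin recruitment to AT1 measured by enzyme fragment complementation luminescence.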 It is filed as functional.
Assay [5] concerns the target X-box-binding protein 1 (Homo sapiens, UniProt P17861). Format: functional, Cricetulus griseus.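 Also: confirmatory dose-response counter-screen serving a CHOP assay.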
Assay [6] concerns the target DNA damage-inducible transcript 3 protein (Mus musculus, UniProt P35639). Format: functional, Cricetulus griseus.
Assay [7] can be described thus: Luminescence Cell-Based Dose Retest to Confirm Inhibitors of Cancer Stem Cells. [Related pubchem assays (depositor defined):AID2717, AID2721]. Format: functional. Particulars: Homo sapiens.
For assay [8], the target named is T1, Cannabinoid receptor 1 (Homo sapiens, UniProt P21554). Nature of the assay: SAR analysis of agonists of the Cannabinoid Receptor 1 using an Image-Based Assay - Set 2. [Related pubchem assays (depositor defined):AID2013, AID2026]. Format: functional.
For assay [9], the target named is T2, G-protein coupled receptor 55 (Homo sapiens, UniProt Q9Y2T6). In words: GPR55 antagonist potency of analogs, SAR follow-up, imaging, U2OS, beta-arrestin-GFP, LPI agonist, set 2 (AID 2820). It is filed as functional.
In assay [10] the target is T3, G-protein coupled receptor 35 (Homo sapiens, UniProt Q9HC97). In words: SAR analysis of Antagonists of the GPR35 Receptor using an Image-Based Assay - Set 3. [Related pubchem assays (depositor defined):AID2013, AID2026]. It is filed as functional.
Assay [11] concerns the target T1, Cannabinoid receptor 1. In words: SAR analysis of antagonists of the Cannabinoid Receptor 1 using an Image-Based Assay - Set 2. [Related pubchem assays (depositor defined):AID2013, AID2026]. Format: functional.
Assay [12] has as its target T2, G-protein coupled receptor 55. Nature of the assay: GPR55 antagonists blocking LPI-driven arrestin recruitment, primary screen, imaging, U2OS, beta-arrestin-GFP, LPI agonist (AID 2013).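 Also: antagonist potency measured as reduced agonist-driven arrestin aggregation.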 It is filed as functional.
Assay [13] has as its target T4, Cannabinoid receptor 2 (Homo sapiens, UniProt P34972). In words: SAR analysis of antagonists of the Cannabinoid Receptor 2 using an Image-Based Assay. [Related pubchem assays (depositor defined):AID2013, AID2026]. Format: functional.
Assay [14] has as its target T3, G-protein coupled receptor 35. Nature of the assay: SAR analysis of Agonists of the GPR35 Receptor using an Image-Based Assay - Set 2. [Related pubchem assays (depositor defined):AID2013, AID2026]. Format: functional.
Assay [15] has as its target T4, Cannabinoid receptor 2. In words: SAR analysis of agonists of the Cannabinoid Receptor 2 using an Image-Based Assay. [Related pubchem assays (depositor defined):AID2013, AID2026]. Format: functional.
Assay [16] addresses T5, Alkaline phosphatase, tissue-nonspecific isozyme (Homo sapiens, UniProt P05186).
T5 sequence (P05186 whole entry): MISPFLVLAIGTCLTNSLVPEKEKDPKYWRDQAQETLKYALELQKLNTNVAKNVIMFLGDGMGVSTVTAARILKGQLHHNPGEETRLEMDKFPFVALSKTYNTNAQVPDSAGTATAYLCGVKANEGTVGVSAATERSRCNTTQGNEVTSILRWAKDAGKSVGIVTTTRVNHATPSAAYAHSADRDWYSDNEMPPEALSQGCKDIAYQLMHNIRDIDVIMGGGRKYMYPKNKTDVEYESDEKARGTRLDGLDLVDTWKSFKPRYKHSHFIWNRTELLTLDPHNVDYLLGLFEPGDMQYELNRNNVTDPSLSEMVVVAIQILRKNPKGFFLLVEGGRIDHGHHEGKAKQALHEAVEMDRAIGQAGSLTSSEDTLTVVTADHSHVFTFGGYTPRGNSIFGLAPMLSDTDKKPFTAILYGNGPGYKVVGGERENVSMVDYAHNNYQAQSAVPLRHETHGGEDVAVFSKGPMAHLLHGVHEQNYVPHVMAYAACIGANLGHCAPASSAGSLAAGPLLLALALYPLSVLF
Nature of the assay: human TNAP enzyme inhibitors, SAR follow-up, biochemical, luminescent, dose response (AID 1056).

Assay [17] addresses Glucose-6-phosphate 1-dehydrogenase (Homo sapiens, UniProt P11413). In words: human G6PD enzyme inhibitors, dose response, selectivity assay for P. falciparum G6PD inhibitor project, biochemical, fluorescence (AID 504792). It is filed as functional.
Assay [18] addresses Phosphomannomutase 2 (Homo sapiens, UniProt O15305). Nature of the assay: Counter screen SAR assay for PMM2 inhibitors via a fluorescence intensity assay. [Related pubchem assays (depositor defined):AID1545, AID1574].
Assay [19] concerns T-cell. Nature of the assay: inhibitors of CD8+ T cell–vesicle binding, dose response, mouse 2C CD8+ T cells, flow cytometry (AID 485284). Format: functional.
For assay [20], the target named is DNA dC->dU-editing enzyme APOBEC-3G (Homo sapiens, UniProt Q9HC16). In words: Dose Response confirmation of small molecule APOBEC3G DNA Deaminase Inhibitors via a fluorescence-based single-stranded DNA deaminase assay. [Related pubchem assays (depositor defined):AID493012, AID493028]. It is filed as functional.
A short description of assay [21]: HeLa cell cytotoxicity, dose response, cytotoxicity control for MgcRacGAP inhibitor project (AID 624300). Format: functional.
The target of assay [22] is T6, Rac GTPase-activating protein 1 (Homo sapiens, UniProt Q9H0H5).
T6 sequence (Q9H0H5 whole entry): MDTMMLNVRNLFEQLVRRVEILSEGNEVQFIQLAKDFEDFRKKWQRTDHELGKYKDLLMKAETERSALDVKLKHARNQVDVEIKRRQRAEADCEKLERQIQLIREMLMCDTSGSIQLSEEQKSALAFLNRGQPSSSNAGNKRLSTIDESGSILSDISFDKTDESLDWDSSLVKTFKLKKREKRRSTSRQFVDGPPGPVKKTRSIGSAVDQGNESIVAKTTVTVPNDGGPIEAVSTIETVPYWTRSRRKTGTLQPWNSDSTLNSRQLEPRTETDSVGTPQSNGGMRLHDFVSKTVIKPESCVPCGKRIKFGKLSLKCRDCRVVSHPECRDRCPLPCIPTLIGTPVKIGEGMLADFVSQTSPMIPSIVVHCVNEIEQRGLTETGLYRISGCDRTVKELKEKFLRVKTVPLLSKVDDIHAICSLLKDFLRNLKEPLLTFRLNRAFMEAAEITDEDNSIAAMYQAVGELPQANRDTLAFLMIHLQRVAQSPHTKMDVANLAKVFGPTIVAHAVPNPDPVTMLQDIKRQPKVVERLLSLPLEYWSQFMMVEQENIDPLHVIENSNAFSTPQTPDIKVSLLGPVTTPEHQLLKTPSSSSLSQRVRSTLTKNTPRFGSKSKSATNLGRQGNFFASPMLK
In words: MgcRacGAP GTPase-activating activity inhibitors, confirmation, biochemical, ADP Hunter fluorescence, primary and confirmatory (AID 624330). Format: functional.

In assay [23] the target is DNA dC->dU-editing enzyme APOBEC-3A (Homo sapiens, UniProt P31941). Nature of the assay: APOBEC3A DNA deaminase inhibitors, dose response, biochemical (AID 504722). Format: functional.
Assay [24] concerns the target Phosphoethanolamine/phosphocholine phosphatase (Homo sapiens, UniProt Q8TCT1). Nature of the assay: SAR assay for compounds that inhibit PHOSPHO1. [Related pubchem assays (depositor defined):AID1545, AID1565, AID1574].
The target of assay [25] is T7, Mu-type opioid receptor (Homo sapiens, UniProt P35372). In words: MOR agonists by imaging, SAR follow-up, image-based (AID 2352). Format: functional.
In assay [26] the target is T8, Delta-type opioid receptor (Homo sapiens, UniProt P41143). In words: DOR antagonists, SAR follow-up, image-based (AID 2357). It is filed as functional.
Assay [27] has as its target T7, Mu-type opioid receptor. Nature of the assay: MOR antagonists, SAR follow-up, image-based (AID 2420).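 Also: compounds added before stimulation of receptor with agonist DAMGO.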 It is filed as functional.
Assay [28] addresses T9, Kappa-type opioid receptor (Homo sapiens, UniProt P41145). Nature of the assay: kappa opioid receptor blockers, cell-based, luminescence, beta-arrestin, SAR follow-up (AID 2285). Format: functional.
The target in assay [29] is T9, Kappa-type opioid receptor. Nature of the assay: KOR agonist analogs, imaging readout, SAR follow-up, image-based (AID 2359). Format: functional.
For assay [30], the target named is T9, Kappa-type opioid receptor. In words: KOR antagonists by imaging, SAR follow-up, image-based (AID 2348). Format: functional.
In assay [31] the target is T8, Delta-type opioid receptor. Nature of the assay: DOR agonists, SAR follow-up, image-based (AID 2370). It is filed as functional.

Active and inactive are the calls of the source.
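For AC50 in this document: cells exposed to compound for roughly 70 hours or longer before luminescence read.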

T9 sequence (P41145 whole entry): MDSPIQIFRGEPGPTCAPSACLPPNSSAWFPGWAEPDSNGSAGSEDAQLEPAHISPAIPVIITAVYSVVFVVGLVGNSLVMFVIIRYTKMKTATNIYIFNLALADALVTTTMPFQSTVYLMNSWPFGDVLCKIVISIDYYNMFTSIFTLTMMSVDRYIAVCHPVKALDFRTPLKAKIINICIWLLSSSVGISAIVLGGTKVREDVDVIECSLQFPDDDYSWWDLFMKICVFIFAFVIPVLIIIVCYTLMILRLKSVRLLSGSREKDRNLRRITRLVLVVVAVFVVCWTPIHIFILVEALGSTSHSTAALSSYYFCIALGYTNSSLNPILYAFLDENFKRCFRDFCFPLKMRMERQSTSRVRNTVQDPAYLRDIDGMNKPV
T8 sequence (P41143 whole entry): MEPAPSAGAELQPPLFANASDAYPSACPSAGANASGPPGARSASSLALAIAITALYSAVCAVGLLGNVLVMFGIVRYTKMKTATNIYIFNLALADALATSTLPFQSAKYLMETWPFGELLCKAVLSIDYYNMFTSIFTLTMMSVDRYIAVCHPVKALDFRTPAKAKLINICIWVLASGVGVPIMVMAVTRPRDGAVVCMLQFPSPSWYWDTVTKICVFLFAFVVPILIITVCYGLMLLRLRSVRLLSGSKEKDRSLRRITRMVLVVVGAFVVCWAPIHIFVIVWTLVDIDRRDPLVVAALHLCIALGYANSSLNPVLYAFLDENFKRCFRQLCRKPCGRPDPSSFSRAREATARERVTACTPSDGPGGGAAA
T2 sequence (Q9Y2T6 whole entry): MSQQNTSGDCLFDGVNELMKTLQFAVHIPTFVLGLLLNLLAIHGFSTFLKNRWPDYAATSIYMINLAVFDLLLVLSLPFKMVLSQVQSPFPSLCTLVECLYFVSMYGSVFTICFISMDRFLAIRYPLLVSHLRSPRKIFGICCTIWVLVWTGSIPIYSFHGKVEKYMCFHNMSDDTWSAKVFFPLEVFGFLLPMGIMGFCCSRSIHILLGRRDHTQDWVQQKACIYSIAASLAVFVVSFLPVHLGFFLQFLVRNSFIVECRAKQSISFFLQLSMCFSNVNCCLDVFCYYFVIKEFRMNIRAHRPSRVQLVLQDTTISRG
T7 sequence (P35372 whole entry): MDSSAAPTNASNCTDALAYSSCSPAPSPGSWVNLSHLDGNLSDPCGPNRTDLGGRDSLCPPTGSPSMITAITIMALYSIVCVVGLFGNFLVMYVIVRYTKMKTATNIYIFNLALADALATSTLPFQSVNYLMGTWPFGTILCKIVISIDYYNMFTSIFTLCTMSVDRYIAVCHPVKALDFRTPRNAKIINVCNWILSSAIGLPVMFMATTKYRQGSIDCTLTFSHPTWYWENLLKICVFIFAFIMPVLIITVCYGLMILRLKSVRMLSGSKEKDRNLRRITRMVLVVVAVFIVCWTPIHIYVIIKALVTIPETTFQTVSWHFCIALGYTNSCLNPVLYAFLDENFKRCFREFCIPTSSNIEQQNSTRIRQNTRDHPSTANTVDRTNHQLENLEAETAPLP
T4 sequence (P34972 whole entry): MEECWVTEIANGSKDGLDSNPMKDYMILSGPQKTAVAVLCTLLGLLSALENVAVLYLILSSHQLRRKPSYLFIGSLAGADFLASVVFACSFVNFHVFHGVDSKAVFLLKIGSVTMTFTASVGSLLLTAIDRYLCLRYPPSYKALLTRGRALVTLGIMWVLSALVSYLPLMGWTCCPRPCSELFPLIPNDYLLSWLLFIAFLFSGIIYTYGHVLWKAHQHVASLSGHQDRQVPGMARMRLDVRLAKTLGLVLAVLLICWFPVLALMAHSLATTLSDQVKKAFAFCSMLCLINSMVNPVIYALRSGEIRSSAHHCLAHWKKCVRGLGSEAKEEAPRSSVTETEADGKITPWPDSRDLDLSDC
T1 sequence (P21554 whole entry): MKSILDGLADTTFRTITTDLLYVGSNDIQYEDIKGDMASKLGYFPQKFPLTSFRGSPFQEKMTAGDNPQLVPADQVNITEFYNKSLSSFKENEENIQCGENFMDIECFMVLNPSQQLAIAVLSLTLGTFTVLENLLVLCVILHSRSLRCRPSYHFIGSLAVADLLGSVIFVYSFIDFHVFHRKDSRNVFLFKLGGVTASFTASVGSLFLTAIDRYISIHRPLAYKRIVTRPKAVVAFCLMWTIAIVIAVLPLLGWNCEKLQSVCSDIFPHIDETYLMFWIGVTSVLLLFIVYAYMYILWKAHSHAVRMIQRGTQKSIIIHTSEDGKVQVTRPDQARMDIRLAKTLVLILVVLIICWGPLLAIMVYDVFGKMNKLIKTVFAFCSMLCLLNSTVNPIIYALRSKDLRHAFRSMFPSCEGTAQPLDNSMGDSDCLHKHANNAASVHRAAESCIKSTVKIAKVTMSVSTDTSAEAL
T3 sequence (Q9HC97 whole entry): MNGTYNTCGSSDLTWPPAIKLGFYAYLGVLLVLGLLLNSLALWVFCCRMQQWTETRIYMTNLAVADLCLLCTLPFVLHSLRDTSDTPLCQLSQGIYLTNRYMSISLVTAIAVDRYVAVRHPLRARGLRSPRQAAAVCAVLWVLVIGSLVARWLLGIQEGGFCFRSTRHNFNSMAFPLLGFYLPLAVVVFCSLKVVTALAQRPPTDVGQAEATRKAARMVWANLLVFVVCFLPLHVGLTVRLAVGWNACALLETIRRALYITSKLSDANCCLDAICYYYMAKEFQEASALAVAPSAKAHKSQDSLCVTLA
Sequence of Phosphomannomutase 2 (O15305 whole entry): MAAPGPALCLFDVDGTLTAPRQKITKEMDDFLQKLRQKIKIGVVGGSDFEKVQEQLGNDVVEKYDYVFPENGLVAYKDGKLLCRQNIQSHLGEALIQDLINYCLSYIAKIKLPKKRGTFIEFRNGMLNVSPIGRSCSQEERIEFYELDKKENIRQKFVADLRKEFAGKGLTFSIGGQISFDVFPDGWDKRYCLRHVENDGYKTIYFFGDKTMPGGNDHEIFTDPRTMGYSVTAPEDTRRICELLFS
Sequence of Type-1 angiotensin II receptor (P30556 whole entry, the tested form may be a part): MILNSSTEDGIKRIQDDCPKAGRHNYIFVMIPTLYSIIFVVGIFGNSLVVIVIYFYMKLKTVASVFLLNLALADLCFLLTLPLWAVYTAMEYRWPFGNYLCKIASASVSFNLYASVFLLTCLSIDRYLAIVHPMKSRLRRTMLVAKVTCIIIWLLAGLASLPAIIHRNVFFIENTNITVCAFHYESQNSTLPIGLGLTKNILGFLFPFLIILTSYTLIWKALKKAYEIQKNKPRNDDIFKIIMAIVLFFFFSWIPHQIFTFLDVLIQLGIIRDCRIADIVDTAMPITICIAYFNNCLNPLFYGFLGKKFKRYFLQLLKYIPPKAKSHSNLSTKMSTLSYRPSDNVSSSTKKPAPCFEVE
Sequence of DNA damage-inducible transcript 3 protein (P35639 whole entry): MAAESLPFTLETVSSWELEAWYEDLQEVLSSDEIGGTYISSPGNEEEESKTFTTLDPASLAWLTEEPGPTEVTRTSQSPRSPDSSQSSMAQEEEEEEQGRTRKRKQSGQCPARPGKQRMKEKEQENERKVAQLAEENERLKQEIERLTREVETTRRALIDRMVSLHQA
Sequence of DNA dC->dU-editing enzyme APOBEC-3G (Q9HC16 whole entry): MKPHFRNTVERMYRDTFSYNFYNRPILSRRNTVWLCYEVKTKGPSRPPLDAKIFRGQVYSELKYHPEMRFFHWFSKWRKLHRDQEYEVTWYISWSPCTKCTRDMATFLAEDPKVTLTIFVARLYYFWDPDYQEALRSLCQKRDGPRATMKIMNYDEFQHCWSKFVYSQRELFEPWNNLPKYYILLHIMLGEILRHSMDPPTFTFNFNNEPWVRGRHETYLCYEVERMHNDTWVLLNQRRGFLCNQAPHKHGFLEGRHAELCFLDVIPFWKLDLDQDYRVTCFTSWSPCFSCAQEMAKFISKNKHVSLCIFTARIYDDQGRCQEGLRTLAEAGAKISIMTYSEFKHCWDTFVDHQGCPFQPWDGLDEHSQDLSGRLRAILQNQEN
Sequence of DNA dC->dU-editing enzyme APOBEC-3A (P31941 whole entry): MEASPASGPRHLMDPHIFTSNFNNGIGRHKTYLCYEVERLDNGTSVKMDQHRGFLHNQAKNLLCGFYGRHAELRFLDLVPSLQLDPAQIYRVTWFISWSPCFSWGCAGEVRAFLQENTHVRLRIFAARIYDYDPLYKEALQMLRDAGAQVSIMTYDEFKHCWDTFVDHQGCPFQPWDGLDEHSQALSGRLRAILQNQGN
Sequence of X-box-binding protein 1 (P17861 whole entry): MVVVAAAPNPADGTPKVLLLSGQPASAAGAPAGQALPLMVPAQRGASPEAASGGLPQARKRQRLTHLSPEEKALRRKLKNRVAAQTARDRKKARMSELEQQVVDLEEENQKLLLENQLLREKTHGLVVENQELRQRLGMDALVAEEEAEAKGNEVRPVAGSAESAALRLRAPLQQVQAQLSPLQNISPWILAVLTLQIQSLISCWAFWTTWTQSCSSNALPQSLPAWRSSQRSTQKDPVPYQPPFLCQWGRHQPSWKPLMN
Sequence of Glucose-6-phosphate 1-dehydrogenase (P11413 whole entry): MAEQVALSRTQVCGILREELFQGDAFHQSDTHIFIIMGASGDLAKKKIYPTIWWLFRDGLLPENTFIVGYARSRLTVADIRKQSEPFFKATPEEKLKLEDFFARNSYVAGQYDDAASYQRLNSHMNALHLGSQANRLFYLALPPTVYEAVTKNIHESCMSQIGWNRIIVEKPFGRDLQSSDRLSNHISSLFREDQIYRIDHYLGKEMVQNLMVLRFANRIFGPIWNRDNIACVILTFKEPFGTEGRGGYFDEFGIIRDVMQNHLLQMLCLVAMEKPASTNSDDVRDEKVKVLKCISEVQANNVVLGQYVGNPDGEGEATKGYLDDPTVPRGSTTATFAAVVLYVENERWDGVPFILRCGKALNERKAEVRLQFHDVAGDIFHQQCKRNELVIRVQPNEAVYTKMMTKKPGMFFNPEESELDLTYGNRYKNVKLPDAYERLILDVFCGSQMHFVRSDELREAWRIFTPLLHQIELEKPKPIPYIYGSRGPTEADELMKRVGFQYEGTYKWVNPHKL

As for `CCc1nnc(NC(=O)CSc2nc3cccnc3n2C2CCCCC2)s1`, the EC50 was 13.3 µM (active) in assay [1], > 120 µM (not active) in [2], 23.2 µM (active) in [3] and > 100 µM (inactive) in assay [4].
Take `Oc1ccccc1-n1c(-c2ccccc2)ccc1-c1ccccc1`: the “Absolute IC50 (XBP1)” value in [5] came out at 10 µM. The “Absolute IC50 (CHOP)” value in [6] is 10 µM. Moreover, the AC50 in [7] is 4.28 µM (active).
Take `Cc1n[nH]c(-c2ccc(O)c(C)c2O)c1Oc1ccccc1`: the EC50 in assay [8], in [14] and in assay [15] was > 32 µM (inactive) throughout. Besides, the half-maximal inhibitory concentration (IC50) is 0.854 µM (active) in assay [9]; > 32 µM (inactive) in [10]; 11.7 µM (inactive) in assay [11]; 1.9 µM (active) in assay [12]; > 32 µM (inactive) in [13].
For the molecule `Cc1ccc(C)c(-n2sc3ccc(F)cc3c2=O)c1`, the IC50 in assay [16] was > 100 µM (inactive); in assay [17] it was 11.3 µM (active); in [18], 31.3 µM (active); in [20] it was 13.5 µM (active); in [22] it was 34 µM (active); in [23], > 100 µM (inactive). In assay [24], the IC50 was 7.43 µM (inactive). Moreover, the concentration giving a half-maximal response (EC50) in assay [19] is 3.62 µM (active). In addition, the CC50 in assay [21] was 67.5 µM (active).
Turning to `COc1ccc(S(=O)(=O)NCc2ccc(C(=O)NCCN(C)Cc3ccccc3)cc2)cc1`, the EC50 in [25], in assay [29] and in assay [31] was > 32 µM (inactive) each time. For the same molecule, the IC50 in assay [26] was > 32 µM (inactive); in assay [27] it was > 32 µM (inactive); in [28] it was > 10 µM (inactive); in [30], 24 µM (inactive).

(Values after ChEMBL document CHEMBL1201862, “PubChem BioAssay data set” (2004).)
